Measurements reported in PubChem BioAssay AID540258 (Broad Institute, 2011).
Calls of active or inactive are those of the source.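 How the source made its calls: active means fitted curve reaching 40% activation at or below the top valid dose tested; inconclusive means flat curve at 30 to 70% activation, or poor fit; inactive means the rest.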

These molecules were tested on SK-MEL-5 TRPM1 promoter luciferase reporter, 24 h (assay: activation of TRPM1 promoter luciferase in melanoma cells – SK-MEL-5 cells, cherry-pick samples, dose response (AID 540258);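 further: potency for activators that raise TRPM1 promoter luciferase signal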).

Row | Compound | AC40
1 | COc1nc(C)ccc1-c1noc(-c2ccncc2)n1 | 2.67 µM
2 | CN(C)c1ccc(CSc2ccccc2)cc1 | 1.83 µM
3 | CSc1nc2ccc(NC(=O)c3cccs3)cc2s1 | 2.16 µM
4 | CNC(=O)C(=O)Nc1nc(C23CC4CC(CC(C4)C2)C3)cs1 | 16.6 µM
5 | O=C1c2ccccc2/C(=C\C#Cc2ccccn2)N1c1ccccc1 | 3.93 µM
6 | CCc1cccc2c(C(=O)CN3C(=O)NC4(CCCCCC4)C3=O)c[nH]c12 | > 35 µM (inactive)
7 | Cc1ccc(Nc2cc(C)c3c(O)cccc3n2)cc1C | 3.4 µM
8 | O=C1CCCc2nc3c(cc21)C(O)Oc1c-3ccc2ccccc12 (centres undefined) | 1.52 µM
9 | Nc1nc(CSc2ccccn2)nc(Nc2ccccc2)n1 | 1.31 µM
10 | CC1CCN(C(=O)Nc2ccc3nsnc3c2)CC1 | 13.7 µM
11 | O=C(Nc1ccc(N2CCCCC2)cc1)c1cncc(Br)c1 | 0.969 µM
12 | O=C(Cc1ccccc1F)Nc1ccc(SC(F)F)cc1 | 1.98 µM
13 | CC(C)(C)C(=O)c1sc(Nc2ccccc2)nc1N | 1.68 µM
14 | COc1ccc(-n2nc(C(=O)NCC(=O)N3CCN(c4ccccc4)CC3)c3ccccc3c2=O)c(OC)c1 | 4.77 µM
15 | Oc1oc(-c2ccccc2)nc1C=NCc1ccccc1 | 11.3 µM
16 | c1ccc(SCc2nc(-c3ccccn3)no2)cc1 | 3.01 µM
17 | Cc1ccc(NCCC(=O)c2cccs2)cc1C | 6.77 µM
18 | c1ccc(-c2ccc3sccc3n2)cc1 | 1.52 µM
19 | O=C(O)c1ccc(-c2nc(-c3ccc(Cl)cc3)cs2)cc1 | 0.309 µM
20 | C=CCc1c(C)nc(-c2ccccc2)nc1N/N=C/c1ccncc1 | 7.06 µM
21 | Cc1ccc(-c2noc(C3CCCCC3)n2)cc1 | 1.68 µM
22 | CNC(=O)c1ccc(-c2cc3onc(-c4ccccc4)c3c(=O)n2C)cc1 | 6.96 µM

Row | Compound | AC40
23 | CC(=O)Nc1nnc(COc2ccc(Cl)cc2)s1 | 3.16 µM
24 | O=C(NCCc1cccs1)c1ccc(Cl)c(Cl)c1 | 3.47 µM
25 | COc1cccc(-c2cc(C(=O)Nc3ccccc3SC)no2)c1 | > 35 µM (inactive)
26 | CC(=O)Nc1ccc2c(c1)ncn2-c1ccccc1 | 2.76 µM
27 | Cn1c(NC(=O)CCC2CCCCC2)cc(=O)n(C)c1=O | 1.49 µM
28 | Oc1ccc(/C=N/Nc2cccc(Cl)n2)c(O)c1 | 0.584 µM
29 | O=c1c(-c2ccc(O)cc2)coc2cc(O)cc(O)c12 | 4.48 µM
30 | Cc1ccsc1C(=O)OCc1nnc(-c2ccccc2)o1 | 7.44 µM
31 | CC(C)c1ccc(CNc2ncc(Br)cn2)cc1 | 3.76 µM
32 | COc1cc(OC)c2c(-c3cccc(/C=C/c4ccc(F)cc4)c3)cc(=O)oc2c1 | 6.95 µM
33 | CC(C)c1ccc2nc(N)sc2c1 | > 35 µM (inactive)
34 | COc1ccc2c(c1)CCc1c(C(=O)NCC(C)C)noc1-2 | 0.867 µM
35 | C/C(=N\Nc1ccccn1)c1ccc(C(C)C)cc1 | 4.34 µM
36 | Cc1cc2c([nH]c3ccccc32)c2c1OC(C)(C)C=C2 | 3.8 µM
37 | CC(=O)c1cnc2nc(SCc3ccccc3)nn2c1C | 2.29 µM
38 | CCCCN1C(=O)/C(=C2\SC(N3CCCCC3)=NC2=O)c2ccccc21 | 3.23 µM
39 | COc1ccc(-c2cc(=NCCC(=O)O)c3cc(C)ccc3o2)cc1 | 3.33 µM
40 | N/C(=N\OC(=O)C12CC3CC(CC(C3)C1)C2)c1ccccn1 | 8.23 µM
41 | Cc1nn(C(=O)c2cccs2)c(N)c1-c1ccccc1 | 1.38 µM
42 | CCc1c(C(=O)Nc2ccc(C)c(C)c2)[nH]c(C)c1C(C)=O | 5.17 µM
43 | Cc1ccc(NC(=O)Nc2ccc3c(c2)OCO3)c(OC(F)F)c1 | 2.14 µM
44 | CC(NS(=O)(=O)c1cccc(Cl)c1)C(=O)Nc1ccc(-c2nc3ccccc3s2)cc1 (centres undefined) | 6.96 µM

Row | Compound | AC40
45 | Cc1ccc(C(=O)Nc2ncccc2S(=O)(=O)c2ccccc2)cc1 | 2.94 µM
46 | CCn1c(COc2ccccc2C)nc2ccccc21 | 9.77 µM
47 | FC(F)(F)c1cnc(-c2cnc(-c3cccnc3)nc2)c(Cl)c1 | 3.02 µM
48 | CCCC(=O)c1ccc(N2CCCCCC2)c(F)c1 | 3.36 µM
49 | O=C(N/N=C/c1ccsc1)c1ccc2c(c1)OCO2 | 3.33 µM
50 | COC(=O)c1ccc(-c2ccc(Cl)cc2)nc1C | 0.475 µM
51 | COc1ccc(C(=O)CN2Cc3ccccc3C2=N)cc1 | 4.86 µM
52 | COc1ccc(/C=C2\SC(=O)N(CCNC(=O)C3CC4C=CC3C4)C2=O)cc1 (centres undefined) | 1.39 µM
53 | CCN=c1scc(-c2ccc(F)cc2)n1/N=C/c1ccccn1 | 0.798 µM
54 | COc1ccc2c(c1)CC/C(=C\Nc1ccc3c(c1)OCO3)C2=O | 2.3 µM
55 | O=C(c1cc(COc2ccc(F)cc2Cl)on1)N1CCCCCC1 | 1.67 µM
56 | O=c1nc(/C=C/c2ccc(O)c(O)c2)oc2ccccc12 | 6.32 µM
57 | CC1CCc2sc(C(=O)Nc3ccc(C(N)=O)cc3)cc2C1 (centres undefined) | 15.4 µM
58 | Cc1nc(COC(=O)c2c(C)nn(-c3ccccc3)c2C)cs1 | 21.1 µM
59 | Cc1ccsc1CCNC(=O)C1CCC(=O)N(CCc2cccc(F)c2)C1 (centres undefined) | 6.83 µM
60 | Cc1ccc(N(C)/N=C/c2ccc(Cl)cc2Cl)nn1 | 34.2 µM
61 | Oc1ccc(Br)cc1/C=N/N1CCCCC1 | 1.75 µM
62 | C/C(=N/OC(=O)CC(C)C)c1cc(-c2ccc(Cl)cc2)no1 | 2.65 µM
63 | CC(=O)c1ccc(Nc2ccc(-c3ccccc3C)nn2)cc1 | 4.2 µM
64 | Cc1cccc2c1-c1sc(C(=O)N3CCCCC3)cc1CO2 | 2.7 µM
